The values that follow are results of earlier work, collected in PubChem BioAssay AID1259409 (Chemical Carcinogenesis Research Information System (CCRIS), 2018).

This series deals with rodent chemically induced tumor inhibition, incidence and multiplicity. In words: CCRIS tumor inhibitor studies. The settings on record: 64091-91-4, Promoter: NONE USED.

Consider `S=C=NCCc1ccccc1`, for which the “tumour outcome (control, treated, inhibition, significance)” value was 5/40 (13%), 3/40 (8%), 38%, not calculated (Carcinogen: 4-(METHYLNITROSAMINO)-1-(3-PYRIDYL)-1-BUTANONE, Dose [Inhibitor]: 3 UMOL/G DIET BEGINNING 1 WK PRIOR TO FIRST CARCINOGEN DOSE (STUDY DURATION: 104 WK), Route [Inhibitor]: ORAL, Species: RAT, Strain/Sex: F344/MALE, Target Tissue: Type of Lesion: HEMATOPOIETIC SYSTEM: LEUKEMIA OR LYMPHOMA, Dose [Carcinogen]: 1.76 MG/KG 3/WK FOR 20 WK); 32/40 (80%), 17/40 (43%), 46%, p<0.05 (Carcinogen: 4-(METHYLNITROSAMINO)-1-(3-PYRIDYL)-1-BUTANONE, Dose [Inhibitor]: 3 UMOL/G DIET BEGINNING 1 WK PRIOR TO FIRST CARCINOGEN DOSE (STUDY DURATION: 104 WK), Route [Inhibitor]: ORAL, Species: RAT, Strain/Sex: F344/MALE, Target Tissue: Type of Lesion: LUNG: ADENOMA OR CARCINOMA, Dose [Carcinogen]: 1.76 MG/KG 3/WK FOR 20 WK); 15/40 (38%), 14/40 (35%), 8%, not calculated (Carcinogen: 4-(METHYLNITROSAMINO)-1-(3-PYRIDYL)-1-BUTANONE, Dose [Inhibitor]: 3 UMOL/G DIET BEGINNING 1 WK PRIOR TO FIRST CARCINOGEN DOSE (STUDY DURATION: 104 WK), Route [Inhibitor]: ORAL, Species: RAT, Strain/Sex: F344/MALE, Target Tissue: Type of Lesion: LUNG: ADENOMA OR HEPATOCELLULAR CARCINOMA, Dose [Carcinogen]: 1.76 MG/KG 3/WK FOR 20 WK); 5/40 (13%), 0/40 (0%), 100%, not calculated (Carcinogen: 4-(METHYLNITROSAMINO)-1-(3-PYRIDYL)-1-BUTANONE, Dose [Inhibitor]: 3 UMOL/G DIET BEGINNING 1 WK PRIOR TO FIRST CARCINOGEN DOSE (STUDY DURATION: 104 WK), Route [Inhibitor]: ORAL, Species: RAT, Strain/Sex: F344/MALE, Target Tissue: Type of Lesion: MAMMARY GLAND: ADENOCARCINOMA OR FIBROADENOMA OR FIBROMA, Dose [Carcinogen]: 1.76 MG/KG 3/WK FOR 20 WK); 11/40 (28%), 7/40 (18%), 36%, not calculated (Carcinogen: 4-(METHYLNITROSAMINO)-1-(3-PYRIDYL)-1-BUTANONE, Dose [Inhibitor]: 3 UMOL/G DIET BEGINNING 1 WK PRIOR TO FIRST CARCINOGEN DOSE (STUDY DURATION: 104 WK), Route [Inhibitor]: ORAL, Species: RAT, Strain/Sex: F344/MALE, Target Tissue: Type of Lesion: NASAL CAVITY: SQUAMOUS CELL PAPILLOMA OR TRANSITIONAL-CELL PAPILLOMA OR POLYP OR SQUAMOUS CELL CARCINOMA, Dose [Carcinogen]: 1.76 MG/KG 3/WK FOR 20 WK); 1/40 (3%), 5/40 (13%), -333%, not calculated (Carcinogen: 4-(METHYLNITROSAMINO)-1-(3-PYRIDYL)-1-BUTANONE, Dose [Inhibitor]: 3 UMOL/G DIET BEGINNING 1 WK PRIOR TO FIRST CARCINOGEN DOSE (STUDY DURATION: 104 WK), Route [Inhibitor]: ORAL, Species: RAT, Strain/Sex: F344/MALE, Target Tissue: Type of Lesion: PANCREAS: EXOCRINE ADENOCARCINOMA OR EXOCRINE ADENOMA, Dose [Carcinogen]: 1.76 MG/KG 3/WK FOR 20 WK). Further, the “tumour outcome (control, treated, inhibition, significance)” value reads like this: (Carcinogen: 4-(METHYLNITROSAMINO)-1-(3-PYRIDYL)-1-BUTANONE, Dose [Inhibitor]: 3 UMOL/G DIET BEGINNING 1 WK PRIOR TO FIRST CARCINOGEN DOSE (STUDY DURATION: 104 WK), Route [Inhibitor]: ORAL, Species: RAT, Strain/Sex: F344/MALE, Target Tissue: Type of Lesion: PERITONEUM: MESOTHELIOMA, Dose [Carcinogen]: 1.76 MG/KG 3/WK FOR 20 WK) 1/40 (3%), 2/40 (5%), -67%, not calculated; (Carcinogen: 4-(METHYLNITROSAMINO)-1-(3-PYRIDYL)-1-BUTANONE, Dose [Inhibitor]: 3 UMOL/G DIET BEGINNING 1 WK PRIOR TO FIRST CARCINOGEN DOSE (STUDY DURATION: 104 WK), Route [Inhibitor]: ORAL, Species: RAT, Strain/Sex: F344/MALE, Target Tissue: Type of Lesion: STOMACH: SARCOMA OR PAPILLOMA, Dose [Carcinogen]: 1.76 MG/KG 3/WK FOR 20 WK) 5/40 (13%), 2/40 (5%), 62%, not calculated; (Carcinogen: 4-(METHYLNITROSAMINO)-1-(3-PYRIDYL)-1-BUTANONE, Dose [Inhibitor]: 3 UMOL/G DIET BEGINNING 1 WK PRIOR TO FIRST CARCINOGEN DOSE (STUDY DURATION: 104 WK), Route [Inhibitor]: ORAL, Species: RAT, Strain/Sex: F344/MALE, Target Tissue: Type of Lesion: TESTES: TUMOR, Dose [Carcinogen]: 1.76 MG/KG 3/WK FOR 20 WK) 31/40 (78%), 31/40 (78%), 0%; (Carcinogen: 4-(METHYLNITROSAMINO)-1-(3-PYRIDYL)-1-BUTANONE, Dose [Inhibitor]: 3 UMOL/G DIET BEGINNING 1 WK PRIOR TO FIRST CARCINOGEN DOSE (STUDY DURATION: 104 WK), Route [Inhibitor]: ORAL, Species: RAT, Strain/Sex: F344/MALE, Target Tissue: Type of Lesion: THYROID: MALIGNANT TUMOR OR BENIGN TUMOR, Dose [Carcinogen]: 1.76 MG/KG 3/WK FOR 20 WK) 1/40 (3%), 3/40 (8%), -166%, not calculated; (Carcinogen: 4-(METHYLNITROSAMINO)-1-(3-PYRIDYL)-1-BUTANONE, Dose [Inhibitor]: 5 UMOL/D FOR 4 CONSECUTIVE DAYS (STUDY DURATION: 16 WK), Route [Inhibitor]: GAVAGE, Species: MOUSE, Strain/Sex: STRAIN-A/FEMALE, Target Tissue: Type of Lesion: LUNG: ADENOMA, Dose [Carcinogen]: 10 UMOL ONCE 2 HR POST LAST AGENT DOSE) 30/30 (100%), 18/20 (89%), 11%, not calculated; (Carcinogen: 4-(METHYLNITROSAMINO)-1-(3-PYRIDYL)-1-BUTANONE, Dose [Inhibitor]: 25 UMOL/D FOR 4 CONSECUTIVE DAYS (STUDY DURATION: 16 WK), Route [Inhibitor]: GAVAGE, Species: MOUSE, Strain/Sex: STRAIN-A/FEMALE, Target Tissue: Type of Lesion: LUNG: ADENOMA, Dose [Carcinogen]: 10 UMOL ONCE 2 HR POST LAST AGENT DOSE) 30/30 (100%), 6/20 (30%), 70%, p<0.01. For the same compound, the “tumour outcome (control, treated, inhibition, significance)” value runs as follows: (Carcinogen: 4-(N-NITROSOMETHYLAMINO)-1-(3-PYRIDYL)-1-BUTANONE, Dose [Inhibitor]: 0, 3 UMOL/G DIET BEGINNING 1 WK PRIOR TO CARCINOGEN TREATMENT AND CONTINUING FOR 21 WK (STUDY DURATION: 104 WK), Route [Inhibitor]: ORAL, Species: RAT, Strain/Sex: F344/MALE, Target Tissue: Type of Lesion: LIVER: ADENOMA, Dose [Carcinogen]: 1.76 MG/KG 3/WK FOR 20 WK) 12/40 (30%), 9/40 (23%), 23%, not calculated; (Carcinogen: 4-(N-NITROSOMETHYLAMINO)-1-(3-PYRIDYL)-1-BUTANONE, Dose [Inhibitor]: 0, 3 UMOL/G/DIET BEGINNING 1 WK PRIOR TO CARCINOGEN TREATMENT AND CONTINUING FOR 21 WK (STUDY DURATION: 104 WK), Route [Inhibitor]: ORAL, Species: RAT, Strain/Sex: F344/MALE, Target Tissue: Type of Lesion: LIVER: CARCINOMA, Dose [Carcinogen]: 1.76 MG/KG 3/WK FOR 20 WK) 3/40 (8%), 5/40 (13%), -62%, not calculated; (Carcinogen: 4-(N-NITROSOMETHYLAMINO)-1-(3-PYRIDYL)-1-BUTANONE, Dose [Inhibitor]: 0, 3 UMOL/G/DIET BEGINNING 1 WK PRIOR TO CARCINOGEN TREATMENT AND CONTINUING FOR 21 WK (STUDY DURATION: 104 WK), Route [Inhibitor]: ORAL, Species: RAT, Strain/Sex: F344/MALE, Target Tissue: Type of Lesion: LUNG: ADENOMA, Dose [Carcinogen]: 1.76 MG/KG 3/WK FOR 20 WK) 8/40 (20%), 5/40 (13%), 35%, not calculated; (Carcinogen: 4-(N-NITROSOMETHYLAMINO)-1-(3-PYRIDYL)-1-BUTANONE, Dose [Inhibitor]: 0, 3 UMOL/G/DIET BEGINNING 1 WK PRIOR TO CARCINOGEN TREATMENT AND CONTINUING FOR 21 WK (STUDY DURATION: 104 WK), Route [Inhibitor]: ORAL, Species: RAT, Strain/Sex: F344/MALE, Target Tissue: Type of Lesion: LUNG: CARCINOMA, Dose [Carcinogen]: 1.76 MG/KG 3/WK FOR 20 WK) 24/40 (60%), 12/40 (30%), 50%, not calculated.
